Experimental data published in patent US7090780B2, “Bactericide for use in water treatment, method for water treatment and apparatus for water treatment” (Toray Industries, Inc., priority 2001, dated 2006).

Details: 50 ppm of sulfuric acid added to pressure-sterilized physiological salt solution (salt concentration 0.9 wt %)

O=S(=O)(O)O [sulfuric acid]
pH of the liquid: 3.2
